Measured values taken from US8080582B2, “Derivatives of 8-epiblechnic acid and their effects on down-regulation of endothelin (ETA) receptor mRNA” (ScinoPharm Taiwan Ltd., priority 2008, dated 2011).
Entries after “also recorded” stand apart in the source; their conditions may differ.

Legend:
Type in all cases: cell-based
[1] = test system: Vascular smooth muscle cells (cell line A10); experiment: MTT cell viability / observation of normal vascular smooth muscle cells (A10); details: 48 hrs; for Precipitation in the treated sample: dissolved in DMSO, added to A10 cells, 0.2 mM
Description: (§1) The cells (1×10^5 cells/well in 24-well plates) were cultured for 24 hrs. Different concentrations of Sal-B and its analogs (0, 50, 100, 150, 200, 250 μg/ml) were added to treat the cells. After treating for 48 hrs, 100 μl MTT solution was added to each well, and the plate was placed in an incubator for 1-4 hrs. After adding 400 μl DMSO to treat the cells for 30 min., 200 μl samples were collected and placed in a 96-well plate to conduct the absorption measurement at 550 nm.
Cell viability testing (MTT testing) was employed to determine the cytotoxicity of Sal-B and EBA to vascular smooth muscle cells. Vascular smooth muscle cells (cell line A10) were treated with Sal-B and EBA at concentrations of 0, 0.1, 0.2, 0.3, 0.4, and 0.5 mM. After treating for 48 hrs, MTT was added and allowed to react for 3 hrs at 37° C. Then, DMSO was added and allowed to react for 30 min., after that, the OD570 absorption values were measured. Cell viability was still 90% when the drug concentration reached 0.2 mM.
Sal-B's analogs, compounds A to F, were dissolved in DMSO, and then added to A10 cells to observe the results.

[2] = test system: nasopharyngeal cancer cells (Hone-1); experiment: MTT cell viability, nasopharyngeal cancer cells; details: Hone-1 cells, summary statement
Description: as §1
(§2) Cancer cells were treated with Sal-B and EBA at concentrations of 0, 0.1, 0.2, 0.3, 0.4, 0.5 mM. After treating for 48 hrs, MTT was added, and then allowed to react for 3 hrs at 37° C. After that, DMSO was added and allowed to react for 30 min., the OD570 absorption values were measured. Cell viability was above 80% when nasopharyngeal cancer cells (Hone-1) were treated with […] Sal-B and EBA. […] But the cell viability remained above 70% for treating with 0.1 mM and 0.2 mM EBA. Similar results were obtained when prostate cancer cells (PC-3) were treated with the drugs: Cell viability was above 80% for treating PC-3 cells with 0.2 mM Sal-B or EBA.

[3] = test system: prostate cancer cells (PC-3); experiment: MTT cell viability, prostate cancer cells; details: for Viability of PC-3 cells as the concentration is increased: PC-3, MTT, increasing concentration, FIG. 1
Description: as §1, §2
MTT testing was employed to observe the viability of cancer cells after treating with Sal-B and the six synthetic analogs.

[4] = test system: normal mammary gland cell line (A1N4); experiment: Cytotoxicity test on normal mammary gland cells; details: A1N4 normal mammary gland cells, FIG. 2
Description: as §1

[5] = test system: ETAR mRNA expression; experiment: Real-time quantitative RT-PCR of ETAR mRNA in smooth muscle cells (A10); details: A10 smooth muscle cells, 0.2 mM, 48 hrs, vs DMSO control, FIG. 4, read-out: ETAR mRNA remaining after the treatment
Description: Extraction of cellular RNA: Subculturing smooth muscle cells to 100-mm culture dishes. After the cells had filled the culture dishes, Sal-B and its analogs were added to treat the cells for 48 hrs. After that, 1×PBS solutions were added to wash the cells three times. After adding 1 ml TRIzol, the cells were scraped off and placed in 1.5 ml micro-centrifuge tubes. Following the addition of 0.2 ml chloroform to each tube, the tubes were shaken, left at room temperature for 3 min., and run in a centrifuge at 12,000 rpm for 15 min. The supernatant liquid was removed and the cells placed in new micro-centrifuge tubes. After adding an amount of isopropyl alcohol equivalent to one-half of the volume of the supernatant liquid, and mixing until homogeneous, the samples were allowed to stand at room temperature for 10 min. The supernatant liquid was removed after centrifugation at 12,000 rpm for 10 min. 1 ml 70% alcohol was added to wash out salts, followed by centrifugation for 5 min. and removal of supernatant liquid. The samples were dissolved in 50 μl DEPC-H2O after drying.
(1) cDNA synthesis: 1 μl Random hexamer primer (20 μM) and 1 μl dNTP(10 mm) were added to 3 μg RNA, which was allowed to react at 65° C. for 5 min., and then placed on ice promptly. After the addition of 2 μl 10× reaction buffer, 0.5 μl RNaseOUT (40 unit/μl) and 1 μl SuperScript III RT (200 unit/μl), the solution was mixed until homogeneous, and allowed to react at 50° C. for 50 min. After that, the mixture was heated to 85° C. for 5 min. to terminate the enzymatic reaction. The samples were preserved at −70° C. for later use.
(2) PCR quantitative analysis: After adding 7.5 μl PCR primer mix (400 nm each) and 15 μl SYBR Green dye reagent to the 7.5 μl cDNA template, the solution was placed in Bio-Rad's iCycler for PCR reaction. The resulting data was inputted into Gene Expression Analysis for iCycler iQ Real-Time PCR Detection System for quantitative analysis of gene expression.
Furthermore, after treating vascular smooth muscle cells with 100 μg/ml of either Sal-B or EBA for 48 hrs, the identical concentrations of cellular whole RNA were sampled for the synthesis of cDNA by using reverse transcriptase. The PCR method was employed to determine the amounts of endothelin receptor mRNA expression. […] For the analysis of ETAR mRNA expression by using the real-time PCR method, vascular smooth muscle cells at full confluence 100-mm culture dishes were treated with 100 μg/ml of either Sal-B or EBA for 48 hrs. The identical concentrations of cellular whole RNA were sampled for the synthesis of cDNA by using reverse transcriptase. The real-time PCR method was used to compare the amounts of ETAR mRNA expression.
The different analogs, compounds A to F, had different effects on ETAR mRNA expression. The control group represented treating smooth muscle cells (A10) with DMSO, and the positive control group represented treating the cells with Sal-B. The smooth muscle cells were treated with 0.2 mM Sal-B and compounds A to F for 48 hrs. The identical concentrations of cellular RNA were sampled for the synthesis of cDNA by using reverse transcriptase. The real-time PCR method was employed to determine the amounts of ETAR mRNA expression. Compared with the control group, compound B had the least effect on down-regulating ETAR mRNA expression, as approximately 50% of the ETAR mRNA remained after the treatment. […]

[6] = test system: PC-3 cancer cells; experiment: Flow cytometry cell cycle analysis (sub-G1, apoptosis) of PC-3 cells; details: PC-3, 0.01 mM, 48 hrs, PI flow cytometry; control around 1.18%
Description: After suspending cells, the precooled 70% ethanol was used for fixing the cells. After centrifuging the mixture for 10 min. at 3,000 rpm, supernatant liquid was removed. Propidium iodide (PI) buffer (0.1% Triton X-100, 0.2 μg/ml RNase A, 40 μg/ml PI) was added, and then the solution was kept still at 37° C. for 30 min. After that, the cell cycle analysis was conducted by flow cytometry.
Flow cytometry was used to determine whether Sal-B and its analogs induced apoptosis in cancer cells. After treating PC-3 cancer cells with 0.4 mM Sal-B and EBA, and 0.01 mM compounds B and A for 48 hrs, the cells were collected and allowed to react with PI buffer for 30 min. Flow cytometry was then employed to measure the cell cycle. Approximately 5.16% of PC-3 cancer cells were at sub-G1 phase after treating with Sal-B, roughly 5.27% were at sub-G1 phase after treating with compound B, and roughly 8.54% were at sub-G1 phase after treating with compound A. However, for the control, only around 1.18% of the cells were at sub-G1 phase. Therefore, Sal-B and its analogs (compounds B and A) thus caused a significant increase in the percentage of cells at sub-G1 phase.

Compound | Precipitation in the treated sample [1] | Cytotoxicity / cell death in A10 cells ([1]; A10 cells, 0.2 mM in DMSO) | Inhibition of growth of Hone-1 cells [2] | Viability of PC-3 cells as the concentration is increased [3] | Toxicity to PC-3 cells relative to Sal-B ([3]; PC-3 cells, compared with Sal-B) | Cytotoxicity to normal cells [4] | mrna remaining at 200 µM [5] | PC-3 cancer cells at sub-G1 phase [6]
COC(=O)C1Cc2cc(OC)c(OC)cc2CN1C(=O)/C=C/c1cc(OC)c2c(c1)C(C(=O)N1Cc3cc(OC)c(OC)cc3CC1C(=O)OC)C(c1ccc(OC)c(OC)c1)O2 (stereo not drawn) [Compound E] | significant precipitation |  |  |  |  |  |  | 
COC(=O)C(Cc1ccc(OC)c(OC)c1)NC(=O)/C=C/c1ccc(OC)c2c1C(C(=O)NC(Cc1ccc(OC)c(OC)c1)C(=O)OC)C(c1ccc(OC)c(OC)c1)O2 (stereo not drawn) [Compound A, 2-(3,4-dimethoxyphenyl)-7-methoxy-4-{(E)-2-[1-(methoxycarbonyl)-2-(3,4-dimethoxyphenyl)-ethylcarbamoyl]-vinyl}-2,3-dihydro-benzofuran-3-carboxylic acid-1-(methoxycarbonyl)-[2-(3,4-dimethoxyphenyl)-ethyl]-amide] |  | high level of cell death; also recorded: relatively high cytotoxicity | significantly inhibit the growth | led to the similar results | ten times more toxic to PC-3 cells than Sal-B | low toxicity to normal cells | < 20% | roughly 8.54%
COC(=O)C(Cc1ccc(OC)c(OC)c1)NC(=O)/C=C/c1cc(OC)c2c(c1)C(C(=O)NC(Cc1ccc(OC)c(OC)c1)C(=O)OC)C(c1ccc(OC)c(OC)c1)O2 (stereo not drawn) [Compound C, 2-(3,4-dimethoxyphenyl)-7-methoxy-5-{(E)-2-[1-(methoxycarbonyl)-2-(3,4-dimethoxyphenyl)-ethylcarbamoyl]-vinyl}-2,3-dihydro-benzofuran-3-carboxylic acid-1-(methoxycarbonyl)-[2-(3,4-dimethoxyphenyl)-ethyl]-amide] |  |  |  |  |  |  | < 20% | 
COC(=O)C(Cc1ccccc1)NC(=O)/C=C/c1ccc(OC)c2c1C(C(=O)NC(Cc1ccc(OC)c(OC)c1)C(=O)OC)C(c1ccc(OC)c(OC)c1)O2 (stereo not drawn) [Compound B, 2-(3,4-dimethoxyphenyl)-7-methoxy-4-{(E)-2-[1-(methoxycarbonyl)-2-phenyl-ethylcarbamoyl]-vinyl}-2,3-dihydro-benzofuran-3-carboxylic acid-1(methoxycarbonyl)-[2-(3,4-dimethoxyphenyl)-ethyl]-amide] | significant precipitation |  | significantly inhibit the growth | led to the similar results |  | relatively toxic to normal cells | ~50% | roughly 5.27%
